From PMC2747051 (Biochemistry, 2009)

How the values were obtained:
[1] = system: MoeGT1 (Streptomyces viridosporus); assay: LC/MS conversion time course; assay type: biochemical; details: donor 1 mM, 40 uM compound 7, 800 nM enzyme, 5 mM MgCl2, pH 7.5, 37 °C
[2] = system: MoeE5 (Streptomyces viridosporus); assay: anion-exchange HPLC; assay type: biochemical; details: 1 mM UDP-GlcUA, 1 uM enzyme, 20 mM Tris-HCl pH 7.5, 37 °C, 2 h

`O=C(O)[C@H]1O[C@H](OP(=O)(O)OP(=O)(O)OC[C@H]2O[C@@H](n3ccc(=O)[nH]c3=O)[C@H](O)[C@@H]2O)[C@H](O)[C@@H](O)[C@H]1O` [UDP-GalUA] was tested, and the “LC/MS conversion time course” value [1] was “showed a clear preference for UDP-GalUA over UDP-GlcUA” and the “anion-exchange HPLC” value [2] was “we conclude that MoeE5 epimerizes UDP-GlcUA to UDP-GalUA”.
